In one assay the target is T1, EGFR T790M/L858R (Homo sapiens, UniProt P00533, L858R/T790M).
T1 construct: purchased Life technology (Madison, Wis.)
As to the kind of experiment: EGFR T790M/L858R enzyme HTRF inhibition assay. Format: biochemical. Conditions: 20 μM ATP, read-out: EGFR L858R/T79M IC50. The method, boiled down: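 HTRF assay with 0.04 nM enzyme, 1 μM biotin-TK1 peptide and 20 μM ATP, 60 min at 23° C. Product detected with Eu-anti-TK1 antibody/XL665 (60 min at 23° C); compound at 10 doses, 300 nM to 0.015 nM final. IC50 from four-parameter fit.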

A further assay concerns the target T2, INSR (Homo sapiens, UniProt P06213).
T2 construct: purchased Life technology (Madison, Wis.)
Briefly: INSR enzyme HTRF inhibition assay. Format: biochemical. Conditions: 35 μM ATP, read-out: INSR_IC50. On the procedure:
Enzyme: EGFR wild type, EGFR T790M/L858R, EGFR T790M and INSR were purchased from Life technology (Madison, Wis.), EGFR d746-750/T790M was purchased from Carna Biosciences (Japan).
HTRF Kit was purchased from Cis-Bio International which contained the Eu-labeled TK1 antibody, XL665 and biotin-labeled TK1 polypeptide substrates.
Detecting instrument: Envision (PerkinElmer).
The test compound was diluted 3-fold to obtain 10 doses of which the final concentration was from 300 nM to 0.015 nM.
INSR Enzyme Reaction Mixture System:
0.5 nM INSR, 1 μM biotin-TK1 peptide, 35 μM ATP enzyme buffer, a total of which was 10 μL. The reaction plate was white Proxiplate 384-Plus plate (PerkinElmer) and the mixture was reacted at 23° C. for 60 minutes.
Reaction Detection: 10 μL of detection reagent containing Antibody 2 nM and XL665 62.5 nM was added, and the reagent was incubated at 23° C. for 60 minutes. The plates were read by Envision.
The reading is converted to the suppression rate (%) by the following formula […]/(Max-Min)*100%. IC50 Data was measured by four-parameter curve fitting (Model 205 in XLFITS, IDBS).

The next assay addresses T3, EGFR d746-750/T790M (Homo sapiens, UniProt P00533, DEL746-750/T790M).
T3 construct: purchased Carna Biosciences (Japan)
Briefly: EGFR d746-750/T790M enzyme HTRF inhibition assay. Conditions: 40 μM ATP. The format is biochemical. The method, boiled down: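 0.025 nM enzyme with 1 μM biotin-TK1 peptide and 40 μM ATP, 60 min at 23° C; compound tested at 10 doses, 300 nM to 0.015 nM final. HTRF read (Eu-anti-TK1 antibody 2 nM, XL665 62.5 nM, 60 min at 23° C); IC50 from four-parameter fit of % inhibition.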

In a further assay the test system is A431 cells EGFR WT. As to the kind of experiment: A431 cell viability assay (Cell Titer-Glo, 6 days). Format: cell-based, human. Conditions: for IC50: Homo sapiens, A-431, 144 h, A431 cells, 6 days; for A431:NCI-H1975 (ratio): ratio of cell IC50 A431 to NCI-H1975. In outline:
(§1)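 A431 (EGFR WT) and NCI-H1975 (EGFR L858R/T790M) cells treated for 6 days at 37° C, in duplicate with 10 three-fold doses from 10 μM to 0.508 nM final. Viability read as CellTiter-Glo luminescence. IC50 from four-parameter fit of % inhibition.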

A further assay has as its target T4, EGFR wild type (Homo sapiens, UniProt P00533).
T4 construct: purchased Life technology (Madison, Wis.)
As to the kind of experiment: Wild-type EGFR enzyme HTRF inhibition assay. The format is biochemical. Conditions: 25 μM ATP, read-out: EGFR WT IC50. In outline: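 HTRF with 0.05 nM wild-type EGFR, 1 μM biotin-TK1 peptide, 25 μM ATP, 60 min at 23° C; detected with Eu-anti-TK1 antibody 2 nM and XL665 62.5 nM, 60 min at 23° C. Ten 3-fold doses, 300 nM to 0.015 nM final; IC50 by four-parameter fit of % inhibition.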

In assay [1] the test system is NCI-H1975 cells EGFR L858R/T790M. As to the kind of experiment: NCI-H1975 cell viability assay (Cell Titer-Glo, 6 days). The format is cell-based. The following applies: Homo sapiens, 144 h. The method, boiled down: as §1
The test system of assay [2] is human skin squamous cell A431 xenograft (CDX). Briefly: Selectivity study in vivo, A431 xenograft (CDX) model. The arrangement: species or system BALB/c nude mice. The following applies: Table 5 experiment, AZD9291 5 mg/kg; for Tumor Volume (mm^3) 4 days: day 4, oral once daily: 33, 34, 40, 42, 43 20 mg/kg; for Tumor Volume (mm^3) 11 days: day 11, oral once daily: 33, 34, 40, 42, 43 20 mg/kg; for Tumor Volume (mm^3) 18 days: day 18, oral once daily: 33, 34, 40, 42, 43 20 mg/kg. On the procedure: In this model, the less inhibitory effect on the tumor, the better the selectivity in vivo.
The selective experiments in vivo were performed on BALB/c nude mice that subcutaneously implanted human skin squamous cell A431 xenograft (CDX).
BALB/c nude mice, female, 6-8 weeks, weighted about 18-20 grams, the mice were kept in a special pathogen-free environment and in a single ventilation cage (5 mice per cage). The bedding and water of all the cages were disinfected before use. All animals were free to obtain standard certified commercial laboratory diets. All mice were purchased from mice of Shanghai BK Laboratory Animal Co., LTD for research. The tumor tissue (20-30 mm^3) was implanted subcutaneously in the […] of each mouse for tumor growth. The experiment was started when the average tumor volume reached about 150-200 mm^3. The test compound was orally administered (compounds 17, 30, 37 and 38 were administered once daily at 20 mg/kg, the compound AZD9291 was administered once daily at 5 mg/kg, the compound CO-1686 was administered twice daily at 50 mg/kg, the compound Erlotinib was administered once daily at 75 mg/kg and the compound Afatinib was administered once daily at 7.5 mg/kg, 21 days of continuous administration. The data were shown in Table 4; compounds 33, 34, 40, 42 and 43 were administered once daily at 20 mg/kg and compound AZD9291 was administered once daily at5 mg/kg, 21 days of continuous administration. The tumor volume was measured twice a week with a two-dimensional caliper and the volume was measured in cubic millimeters and calculated by the following formula: V=V=0.5 a×b2, where a and b were the major and minor diameters of the tumor, respectively.

Assay [3] concerns NCI-H1975 lung cancer patient-derived xenograft (CDX). As to the kind of experiment: Pharmacodynamics study in vivo, NCI-H1975 xenograft (CDX) model. Further details: species or system BALB/c nude mice. Conditions: AZD9291 5 mg/kg; for Tumor Volume (mm^3) 4 days: day 4, oral daily: compound 30 10 mg/kg, 33, 34, 40, 42, 43 20 mg/kg; for Tumor Volume (mm^3) 7 days: day 7, oral daily: compound 30 10 mg/kg, 33, 34, 40, 42, 43 20 mg/kg; for Tumor Volume (mm^3) 11 days: day 11, oral daily: compound 30 10 mg/kg, 33, 34, 40, 42, 43 20 mg/kg; for Tumor Volume (mm^3) 14 days: day 14, oral daily: compound 30 10 mg/kg, 33, 34, 40, 42, 43 20 mg/kg; for Tumor Volume (mm^3) 18 days: day 18, oral daily: compound 30 10 mg/kg, 33, 34, 40, 42, 43 20 mg/kg. On the procedure:
For example, after 21 days of administration, the tumor volume of the representative compounds 30, 33, 34, 40, 42 and 43 decreased from the beginning of about 149 mm^3 to 3-39 mm^3.
The pharmacological experiments in vivo were performed on BALB/c nude mice that subcutaneously implanted NCI-H1975 lung cancer […] xenograft (CDX).
BALB/c nude mice, female, 6-8 weeks, weighted about 18-22 grams, the mice were kept in a special pathogen-free environment, and in a single ventilation cage (5 mice per cage). The bedding and water of all the cages were disinfected before use. All animals were free to obtain standard certified commercial laboratory diets. A total of 100 mice were purchased from Beijing Vital for research. The tumor tissue (20-30 mm^3) was implanted subcutaneously in the […] of each mouse for tumor growth. The experiment was started when the average tumor volume reached about 150-200 mm^3. The test compound was orally administered daily (compound 30 was administered at 10 mg/kg, compound 33, 34, 40, 42 and 43 were administered at 20 mg/kg and compound AZD9291 was administered continuously for 21 days at 5 mg/kg, the data were shown in Table 3). The tumor volume was measured twice a week with a two-dimensional caliper and the volume was measured in cubic millimeters and calculated by the following formula: V=V=0.5 a×b2, where a and b were the major and minor diameters of the tumor, respectively.

T2 sequence (P06213 28-1382): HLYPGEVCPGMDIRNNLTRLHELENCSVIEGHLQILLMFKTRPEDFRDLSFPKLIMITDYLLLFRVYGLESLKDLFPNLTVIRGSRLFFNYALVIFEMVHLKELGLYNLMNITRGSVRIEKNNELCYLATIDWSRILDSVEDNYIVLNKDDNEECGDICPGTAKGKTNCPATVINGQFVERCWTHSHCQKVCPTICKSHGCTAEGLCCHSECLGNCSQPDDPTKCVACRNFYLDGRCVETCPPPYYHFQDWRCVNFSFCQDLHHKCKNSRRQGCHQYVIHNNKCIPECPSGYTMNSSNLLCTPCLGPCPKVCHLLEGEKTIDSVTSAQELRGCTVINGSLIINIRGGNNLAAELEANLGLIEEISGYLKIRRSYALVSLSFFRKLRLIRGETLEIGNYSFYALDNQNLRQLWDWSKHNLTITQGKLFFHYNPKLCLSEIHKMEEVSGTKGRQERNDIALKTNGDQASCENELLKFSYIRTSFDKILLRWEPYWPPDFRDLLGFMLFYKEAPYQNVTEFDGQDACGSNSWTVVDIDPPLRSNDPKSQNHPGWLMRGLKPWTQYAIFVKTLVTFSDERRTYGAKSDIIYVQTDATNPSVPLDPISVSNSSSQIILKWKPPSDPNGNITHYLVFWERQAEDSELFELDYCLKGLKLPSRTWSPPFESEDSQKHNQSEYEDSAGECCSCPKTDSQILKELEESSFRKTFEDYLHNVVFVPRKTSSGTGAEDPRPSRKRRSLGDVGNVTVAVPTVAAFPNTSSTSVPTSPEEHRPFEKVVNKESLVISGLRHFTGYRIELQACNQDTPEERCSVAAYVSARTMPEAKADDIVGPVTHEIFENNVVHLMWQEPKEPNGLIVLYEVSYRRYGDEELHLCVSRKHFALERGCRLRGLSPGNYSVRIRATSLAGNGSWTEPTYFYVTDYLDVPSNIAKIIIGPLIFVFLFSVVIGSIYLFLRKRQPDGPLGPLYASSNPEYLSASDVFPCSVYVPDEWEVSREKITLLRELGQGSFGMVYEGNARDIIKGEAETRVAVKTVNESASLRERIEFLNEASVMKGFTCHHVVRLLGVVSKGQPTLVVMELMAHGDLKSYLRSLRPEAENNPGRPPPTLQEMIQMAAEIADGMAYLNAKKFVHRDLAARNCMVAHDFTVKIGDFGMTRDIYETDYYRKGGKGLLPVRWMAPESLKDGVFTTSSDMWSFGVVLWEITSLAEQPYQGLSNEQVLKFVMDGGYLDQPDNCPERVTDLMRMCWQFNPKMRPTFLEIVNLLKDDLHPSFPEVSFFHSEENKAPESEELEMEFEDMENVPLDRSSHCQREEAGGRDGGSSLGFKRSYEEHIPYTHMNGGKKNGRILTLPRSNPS
T3 sequence (P00533 with tags, fused parts or gaps DEL746-750/T790M limits assumed): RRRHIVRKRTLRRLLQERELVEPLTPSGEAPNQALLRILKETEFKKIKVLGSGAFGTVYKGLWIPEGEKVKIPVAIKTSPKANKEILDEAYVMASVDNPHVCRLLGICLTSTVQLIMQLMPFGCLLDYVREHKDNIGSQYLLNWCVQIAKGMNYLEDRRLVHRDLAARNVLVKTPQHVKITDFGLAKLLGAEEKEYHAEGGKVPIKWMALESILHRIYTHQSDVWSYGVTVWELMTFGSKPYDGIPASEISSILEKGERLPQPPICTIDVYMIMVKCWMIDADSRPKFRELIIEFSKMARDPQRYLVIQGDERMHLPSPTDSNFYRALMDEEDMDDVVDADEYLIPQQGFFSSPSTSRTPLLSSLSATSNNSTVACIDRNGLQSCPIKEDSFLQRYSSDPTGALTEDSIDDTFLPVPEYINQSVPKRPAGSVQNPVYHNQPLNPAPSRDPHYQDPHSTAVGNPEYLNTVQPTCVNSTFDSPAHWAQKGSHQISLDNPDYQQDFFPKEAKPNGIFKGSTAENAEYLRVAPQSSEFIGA
T4 sequence (P00533 25-1210): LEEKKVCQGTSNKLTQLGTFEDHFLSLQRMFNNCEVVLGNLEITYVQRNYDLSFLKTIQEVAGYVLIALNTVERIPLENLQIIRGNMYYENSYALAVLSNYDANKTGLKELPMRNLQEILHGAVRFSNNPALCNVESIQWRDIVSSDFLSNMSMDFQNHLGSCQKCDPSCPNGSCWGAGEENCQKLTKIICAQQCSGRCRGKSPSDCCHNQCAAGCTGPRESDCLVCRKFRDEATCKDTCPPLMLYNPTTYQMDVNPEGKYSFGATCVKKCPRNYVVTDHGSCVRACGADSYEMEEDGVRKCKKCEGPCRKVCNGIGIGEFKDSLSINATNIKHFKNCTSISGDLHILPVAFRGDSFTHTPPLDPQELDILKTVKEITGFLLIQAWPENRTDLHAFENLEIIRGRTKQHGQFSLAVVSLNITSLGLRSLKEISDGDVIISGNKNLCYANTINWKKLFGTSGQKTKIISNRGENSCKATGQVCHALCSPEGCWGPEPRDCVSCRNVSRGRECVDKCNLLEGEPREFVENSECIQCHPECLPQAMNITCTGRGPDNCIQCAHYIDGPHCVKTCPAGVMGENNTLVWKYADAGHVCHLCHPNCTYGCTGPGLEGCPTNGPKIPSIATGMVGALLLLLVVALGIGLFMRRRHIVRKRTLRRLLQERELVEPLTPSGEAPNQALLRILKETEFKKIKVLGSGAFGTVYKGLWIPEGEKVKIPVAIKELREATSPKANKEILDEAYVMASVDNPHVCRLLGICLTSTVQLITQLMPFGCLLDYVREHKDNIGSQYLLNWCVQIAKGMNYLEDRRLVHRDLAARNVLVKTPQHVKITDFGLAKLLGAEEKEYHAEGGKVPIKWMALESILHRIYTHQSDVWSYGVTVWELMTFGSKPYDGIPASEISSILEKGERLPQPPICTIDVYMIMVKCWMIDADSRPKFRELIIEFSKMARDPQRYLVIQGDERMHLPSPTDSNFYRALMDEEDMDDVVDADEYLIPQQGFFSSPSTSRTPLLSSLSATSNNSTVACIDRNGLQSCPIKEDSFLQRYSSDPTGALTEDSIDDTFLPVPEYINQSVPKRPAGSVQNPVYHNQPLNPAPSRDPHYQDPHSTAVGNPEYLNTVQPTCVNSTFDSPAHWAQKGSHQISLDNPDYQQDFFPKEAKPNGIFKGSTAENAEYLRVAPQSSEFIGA
T1 sequence (P00533 25-1210 T790M/L858R): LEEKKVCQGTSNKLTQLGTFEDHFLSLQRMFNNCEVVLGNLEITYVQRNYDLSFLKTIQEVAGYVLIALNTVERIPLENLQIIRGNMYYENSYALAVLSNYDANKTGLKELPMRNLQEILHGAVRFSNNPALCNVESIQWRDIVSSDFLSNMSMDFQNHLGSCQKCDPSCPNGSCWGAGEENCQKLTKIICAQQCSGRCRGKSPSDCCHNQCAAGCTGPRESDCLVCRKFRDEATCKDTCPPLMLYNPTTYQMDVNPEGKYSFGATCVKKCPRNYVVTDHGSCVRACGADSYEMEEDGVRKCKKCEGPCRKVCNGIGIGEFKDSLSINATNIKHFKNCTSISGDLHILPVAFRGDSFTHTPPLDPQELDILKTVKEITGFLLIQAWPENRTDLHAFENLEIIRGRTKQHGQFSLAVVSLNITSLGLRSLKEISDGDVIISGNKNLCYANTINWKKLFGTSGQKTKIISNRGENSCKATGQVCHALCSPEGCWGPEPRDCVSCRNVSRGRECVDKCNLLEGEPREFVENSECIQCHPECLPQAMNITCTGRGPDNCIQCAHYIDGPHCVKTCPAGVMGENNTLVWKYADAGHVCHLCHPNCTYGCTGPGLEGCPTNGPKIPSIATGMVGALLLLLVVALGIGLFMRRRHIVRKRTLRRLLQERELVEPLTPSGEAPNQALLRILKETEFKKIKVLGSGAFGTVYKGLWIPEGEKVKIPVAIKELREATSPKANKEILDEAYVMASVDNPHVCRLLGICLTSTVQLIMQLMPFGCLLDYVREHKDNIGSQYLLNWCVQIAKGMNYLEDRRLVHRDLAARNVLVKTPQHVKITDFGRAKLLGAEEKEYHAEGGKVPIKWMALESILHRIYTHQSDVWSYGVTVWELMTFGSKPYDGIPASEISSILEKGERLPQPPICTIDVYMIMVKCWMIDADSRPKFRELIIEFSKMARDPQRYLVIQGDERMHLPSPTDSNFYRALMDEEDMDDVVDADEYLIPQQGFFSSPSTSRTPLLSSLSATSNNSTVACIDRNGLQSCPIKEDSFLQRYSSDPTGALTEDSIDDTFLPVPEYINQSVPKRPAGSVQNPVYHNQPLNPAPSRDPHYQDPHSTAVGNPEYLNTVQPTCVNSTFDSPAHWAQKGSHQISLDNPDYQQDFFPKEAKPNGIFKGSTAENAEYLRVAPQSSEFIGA

As for `C=CC(=O)Nc1cc(Nc2nccc(-c3c4n(c5ccccc35)CCC4)n2)c(OC)cc1N(C)CCN(C)C` [Embodiment 1], the IC50 on EGFR T790M/L858R was determined as 0.32 nM; at INSR it was 404 nM; at EGFR d746-750/T790M, 0.39 nM; with A431 cells EGFR WT it was 714 nM; at EGFR wild type, 1.49 nM; in assay [1] it was 10.4 nM. Also, the “A431:NCI-H1975 (ratio)” value in the assay on A431 cells EGFR WT amounted to 71.4.

As to `C=CC(=O)Nc1cc(Nc2nccc(-c3c4n(c5ccccc35)CCC4)n2)c(OC)cc1OCCN(C)C` [Embodiment 3, N-(5-((4-(2,3-Dihydro-1H-pyrrolo[1,2-a]indol-9-yl)pyrimidin-2-yl)amino)-2-(2-(dimethylamino)ethoxy)-4-methoxyphenyl)acrylamide], the IC50 stood at 0.21 nM on EGFR T790M/L858R; 886 nM on INSR; 0.19 nM at EGFR d746-750/T790M; 854 nM in the assay with A431 cells EGFR WT; 1.58 nM on EGFR wild type; 67.2 nM in assay [1]. In addition, the “A431:NCI-H1975 (ratio)” value in the assay on A431 cells EGFR WT came out at 12.7.

Take `C=CC(=O)Nc1cc(Nc2nccc(-c3c4n(c5ccccc35)CCOC4)n2)c(OC)cc1N(C)CCN(C)C` [Embodiment 17, N-(5-((4-(3,4-Dihydro-1H-[1,4]oxazino[4,3-a]indol-10-yl)pyrimidin-2-yl)amino)-2-((2-(dimethylamino)ethyl)(methyl)amino)-4-methoxyphenyl)acrylamide]: the IC50 came out at 0.21 nM at EGFR T790M/L858R; 341 nM on INSR; 0.18 nM on EGFR d746-750/T790M; 777 nM with A431 cells EGFR WT; 0.89 nM on EGFR wild type; 4.1 nM in assay [1]. Besides, the “A431:NCI-H1975 (ratio)” value in the assay with A431 cells EGFR WT came out at 189.5.

For the compound `C=CC(=O)Nc1cc(Nc2nccc(-c3c4n(c5ccccc35)CCOC4)n2)c(OC)cc1N(C)CCN(C)CC` [Embodiment 18, N-(5-((4-(3,4-Dihydro-1H-[1,4]oxazino[4,3-a]indol-10-yl)pyrimidin-2-yl)amino)-2-((2-(ethyl(methyl)amino)ethyl)(methyl)amino)-4-methoxyphenyl)acrylamide], the IC50 stood at 0.2 nM at EGFR T790M/L858R; 633 nM at INSR; 0.18 nM against EGFR d746-750/T790M; 518 nM with A431 cells EGFR WT; 1.9 nM at EGFR wild type; 7 nM in assay [1]. Moreover, the “A431:NCI-H1975 (ratio)” value in the assay with A431 cells EGFR WT turned out to be 74.

In the case of `C=CC(=O)Nc1cc(Nc2nccc(-c3cn4c5c(cccc35)OCCC4)n2)c(OC)cc1N(C)CCN(C)C` [Embodiment 40, N-(5-((4-(3,4-Dihydro-2H-[1,4]oxazepino[2,3,4-hi]indol-7-yl)pyrimidin-2-yl)amino)-2-((2-(dimethylamino)ethyl)(methyl)amino)-4-methoxyphenyl)acrylamide], the IC50 is 0.3 nM at EGFR T790M/L858R; 0.4 nM against EGFR d746-750/T790M; 279 nM in the assay with A431 cells EGFR WT; 0.8 nM at EGFR wild type; 23 nM in assay [1]. Besides, the “Tumor Volume (mm^3) 4 days” value is on record as 212 mm^3 in assay [2] and 108 mm^3 in assay [3]. Moreover, the figures for the “Tumor Volume (mm^3) 11 days” value in assay [2] and in assay [3] were 445 mm^3 and 91 mm^3, respectively. The “Tumor Volume (mm^3) 18 days” value turned out to be 895 mm^3 in assay [2] and 84 mm^3 in assay [3]. The “A431:NCI-H1975 (ratio)” value in the assay with A431 cells EGFR WT is given as 12. Also, in assay [3], the “Tumor Volume (mm^3) 7 days” value was 85 mm^3. For the same compound, the “Tumor Volume (mm^3) 14 days” value in assay [3] came out at 91 mm^3.

With `C=CC(=O)Nc1cc(Nc2nccc(-c3cn4c5c(cccc35)OC3(CC3)C4)n2)c(OC)cc1N(C)CCN(C)C` [Embodiment 42, N-(5-((4-(3H-Spiro[[1,4]oxazino[2,3,4-hi]indole-2,1′-cyclopropan]-6-yl)pyrimidin-2-yl)amino)-2-((2-(dimethylamino)ethyl)(methyl)amino)-4-methoxyphenyl)acrylamide], the IC50 on EGFR T790M/L858R came out at 0.2 nM. In addition, in assay [2], the “Tumor Volume (mm^3) 4 days” value is given as 226 mm^3, the “Tumor Volume (mm^3) 11 days” value stood at 424 mm^3 and the “Tumor Volume (mm^3) 18 days” value turned out to be 661 mm^3. The compound further gave an IC50 on EGFR d746-750/T790M of 0.2 nM. Moreover, in the assay with A431 cells EGFR WT, the IC50 came out at 846 nM and the “A431:NCI-H1975 (ratio)” value is given as 4.8. Moreover, on EGFR wild type, the IC50 amounted to 0.8 nM. Besides, in assay [3], the “Tumor Volume (mm^3) 4 days” value turned out to be 85 mm^3, the “Tumor Volume (mm^3) 7 days” value turned out to be 69 mm^3, the “Tumor Volume (mm^3) 11 days” value came out at 57 mm^3 and the “Tumor Volume (mm^3) 14 days” value is listed as 47 mm^3. Moreover, in assay [3], the “Tumor Volume (mm^3) 18 days” value came out at 20 mm^3. In assay [1], the IC50 was 177 nM.
